One assay has as its target T1, BRAF (Homo sapiens, UniProt P15056).
T1 construct: purchased Invitrogen
Briefly: In vitro kinase assay (Z'-LYTE, Invitrogen). Format: biochemical. The following applies: compound at 100 nM, ATP Km apparent, read-out: % of inhibition of the kinase compared to the control. Summed up: (§1)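 FRET-based Z′-LYTE assay reads donor/acceptor emission ratio (excitation 400 nm) from protease cleavage of non-phosphorylated dual-labelled peptide. Kinase buffer 50 mM HEPES pH 7.5, 0.01% BRIJ-35, 10 mM MgCl2, 1 mM EGTA; ATP at previously determined apparent Km; 1% DMSO final. Compounds tested at 100 nM; percent inhibition reported.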

For another assay, the target named is T2, EGFR (ErbB1) T790M L858R (Homo sapiens, UniProt P00533, L858R/T790M).
T2 construct: purchased Invitrogen
T2 sequence (P00533 25-1210 T790M/L858R): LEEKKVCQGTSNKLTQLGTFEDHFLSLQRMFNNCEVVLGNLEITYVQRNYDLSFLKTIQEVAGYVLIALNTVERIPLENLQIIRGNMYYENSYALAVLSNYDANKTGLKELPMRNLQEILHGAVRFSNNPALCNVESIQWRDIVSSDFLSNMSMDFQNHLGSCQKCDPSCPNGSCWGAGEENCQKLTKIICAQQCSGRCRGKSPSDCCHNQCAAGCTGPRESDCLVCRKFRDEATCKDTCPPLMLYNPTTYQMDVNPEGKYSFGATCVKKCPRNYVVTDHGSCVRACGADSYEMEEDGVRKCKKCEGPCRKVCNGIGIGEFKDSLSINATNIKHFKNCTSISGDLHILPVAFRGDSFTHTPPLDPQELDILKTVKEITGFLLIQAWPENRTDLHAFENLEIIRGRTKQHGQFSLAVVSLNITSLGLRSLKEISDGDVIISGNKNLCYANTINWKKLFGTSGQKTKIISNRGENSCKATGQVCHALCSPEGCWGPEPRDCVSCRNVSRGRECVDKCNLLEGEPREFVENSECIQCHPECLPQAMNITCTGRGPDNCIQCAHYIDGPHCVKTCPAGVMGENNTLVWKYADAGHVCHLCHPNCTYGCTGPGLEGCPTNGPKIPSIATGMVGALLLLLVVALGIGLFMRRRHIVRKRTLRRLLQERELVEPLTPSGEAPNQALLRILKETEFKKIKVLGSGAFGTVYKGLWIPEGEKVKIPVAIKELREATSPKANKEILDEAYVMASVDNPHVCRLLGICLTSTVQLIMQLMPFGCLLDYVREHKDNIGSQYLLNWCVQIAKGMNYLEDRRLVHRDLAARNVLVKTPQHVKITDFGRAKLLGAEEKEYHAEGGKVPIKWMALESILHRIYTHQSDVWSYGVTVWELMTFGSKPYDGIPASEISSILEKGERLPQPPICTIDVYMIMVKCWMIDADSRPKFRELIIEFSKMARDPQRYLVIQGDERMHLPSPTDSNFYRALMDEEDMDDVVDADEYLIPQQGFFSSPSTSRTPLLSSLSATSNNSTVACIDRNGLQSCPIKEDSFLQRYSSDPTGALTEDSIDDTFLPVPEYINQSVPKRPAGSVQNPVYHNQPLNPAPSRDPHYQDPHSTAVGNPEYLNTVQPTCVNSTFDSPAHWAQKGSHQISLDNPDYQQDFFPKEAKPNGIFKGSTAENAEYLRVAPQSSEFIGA
Briefly: In vitro kinase assay (Z'-LYTE, Invitrogen). The assay is classed as biochemical. The following applies: compound at 100 nM, ATP Km apparent, read-out: % of inhibition of the kinase compared to the control. Summed up: as §1

The next assay concerns the target T3, EGFR (ErbB1) (Homo sapiens, UniProt P00533).
T3 construct: purchased Invitrogen
Briefly: In vitro kinase assay (Z'-LYTE, Invitrogen). The note with it: compound at 100 nM, ATP Km apparent, read-out: % of inhibition of the kinase compared to the control. Format: biochemical. Summed up: as §1

Another assay concerns the target T4, FGFR2 (Homo sapiens, UniProt P21802).
T4 construct: purchased Invitrogen
The experiment in a line: In vitro kinase assay (Z'-LYTE, Invitrogen). The assay is classed as biochemical. The following applies: compound at 100 nM, ATP Km apparent, read-out: % of inhibition of the kinase compared to the control. Summed up:
as §1

The next assay concerns the target T5, KDR (VEGFR2) (Homo sapiens, UniProt P35968).
T5 construct: purchased Invitrogen
The experiment in a line: In vitro kinase assay (Z'-LYTE, Invitrogen). The note with it: compound at 100 nM, ATP Km apparent, read-out: % of inhibition of the kinase compared to the control. The assay is classed as biochemical. Summed up:
as §1

A further assay deals with T6, PDGFRA (PDGFR alpha) (Homo sapiens, UniProt P16234).
T6 construct: purchased Invitrogen
The experiment in a line: In vitro kinase assay (Z'-LYTE, Invitrogen). The following applies: compound at 100 nM, ATP Km apparent, read-out: % of inhibition of the kinase compared to the control. Format: biochemical. Summed up: as §1

In the next assay the target is T7, SRC (Homo sapiens, UniProt P12931).
T7 construct: purchased Invitrogen
T7 sequence (P12931 whole entry): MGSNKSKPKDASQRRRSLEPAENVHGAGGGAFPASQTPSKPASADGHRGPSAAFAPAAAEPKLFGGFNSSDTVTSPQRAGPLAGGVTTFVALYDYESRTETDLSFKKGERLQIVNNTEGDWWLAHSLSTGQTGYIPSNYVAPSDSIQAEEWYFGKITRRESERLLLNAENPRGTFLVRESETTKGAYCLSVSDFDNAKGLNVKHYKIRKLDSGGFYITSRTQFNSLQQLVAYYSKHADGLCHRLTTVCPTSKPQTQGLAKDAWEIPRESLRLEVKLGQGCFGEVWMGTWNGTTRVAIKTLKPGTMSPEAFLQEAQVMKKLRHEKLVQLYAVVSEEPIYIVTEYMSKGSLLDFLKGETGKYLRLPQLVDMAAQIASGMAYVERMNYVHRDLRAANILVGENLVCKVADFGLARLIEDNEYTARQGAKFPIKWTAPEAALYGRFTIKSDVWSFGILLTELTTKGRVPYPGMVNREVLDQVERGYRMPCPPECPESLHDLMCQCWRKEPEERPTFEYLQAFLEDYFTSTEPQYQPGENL
Briefly: In vitro kinase assay (Z'-LYTE, Invitrogen). The assay is classed as biochemical. The following applies: compound at 100 nM, ATP Km apparent, read-out: % of inhibition of the kinase compared to the control. An outline of the steps: as §1

In the next assay the test system is HepG2 cell line. The experiment in a line: In vitro cell proliferation assay (MTT). Format: cell-based. The note with it: Homo sapiens, HepG2, 72 hr, read-out: EC50, anti-proliferative activity. Summed up:
(§2)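 Cells (5×10^3 per well for cancer lines, 1×10^4 for HRMEC) incubated in duplicate with 10 nM to 3 μM compound for 72 hr. Proliferation read by MTT; EC50 from sigmoidal fits normalised to DMSO (0%) and 1% SDS (100%) controls.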

For another assay, the system named is HuH7 cell line. Briefly: In vitro cell proliferation assay (MTT). Format: cell-based. The following applies: Homo sapiens, Huh-7, HuH7, 72 hr, EC50 ≧ 1 μM, read-out: EC50, anti-proliferative activity. An outline of the steps: as §2
The test system of a further assay is HUVEC cells. The experiment in a line: In vitro cell proliferation assay (MTT). The assay is classed as cell-based. The note with it: Homo sapiens, 72 hr, read-out: EC50, anti-proliferative activity. An outline of the steps: as §2
A further assay concerns HuCCT1 cell line. Briefly: In vitro cell proliferation assay (MTT). Format: cell-based. The note with it: Homo sapiens, HuCCT-1, HuCCT1, 72 hr, EC50 ≧ 1 μM, read-out: EC50, anti-proliferative activity. Summed up:
as §2

Another assay deals with HuH6 Clone 5 cell line. Briefly: In vitro cell proliferation assay (MTT). Format: cell-based. The following applies: HUH-6-clone5, HuH6 Clone 5, 72 hr, EC50 ≧ 1 μM, read-out: EC50, anti-proliferative activity. Summed up: as §2
A further assay deals with A549 cell line. The experiment in a line: In vitro cell proliferation assay (MTT). The note with it: Homo sapiens, A549, 72 h, EC50 ≧ 1 μM, read-out: EC50, anti-proliferative activity. Format: cell-based. An outline of the steps: as §2
The next assay deals with MDA-MB-231 cell line. Briefly: In vitro cell proliferation assay (MTT). The assay is classed as cell-based. The following applies: Homo sapiens, MDA-MB-231, 72 hr, read-out: EC50, anti-proliferative activity. Summed up: as §2
A further assay deals with HeLa cell line. Briefly: In vitro cell proliferation assay (MTT). Format: cell-based. The note with it: Homo sapiens, 72 hr, EC50 ≧ 1 μM, read-out: EC50, anti-proliferative activity. Summed up: as §2

Like-named read-outs stand apart in the source and are kept apart here. A value given as a limit tells only on which side of the number the result lay.

T5 sequence (P35968 20-1356): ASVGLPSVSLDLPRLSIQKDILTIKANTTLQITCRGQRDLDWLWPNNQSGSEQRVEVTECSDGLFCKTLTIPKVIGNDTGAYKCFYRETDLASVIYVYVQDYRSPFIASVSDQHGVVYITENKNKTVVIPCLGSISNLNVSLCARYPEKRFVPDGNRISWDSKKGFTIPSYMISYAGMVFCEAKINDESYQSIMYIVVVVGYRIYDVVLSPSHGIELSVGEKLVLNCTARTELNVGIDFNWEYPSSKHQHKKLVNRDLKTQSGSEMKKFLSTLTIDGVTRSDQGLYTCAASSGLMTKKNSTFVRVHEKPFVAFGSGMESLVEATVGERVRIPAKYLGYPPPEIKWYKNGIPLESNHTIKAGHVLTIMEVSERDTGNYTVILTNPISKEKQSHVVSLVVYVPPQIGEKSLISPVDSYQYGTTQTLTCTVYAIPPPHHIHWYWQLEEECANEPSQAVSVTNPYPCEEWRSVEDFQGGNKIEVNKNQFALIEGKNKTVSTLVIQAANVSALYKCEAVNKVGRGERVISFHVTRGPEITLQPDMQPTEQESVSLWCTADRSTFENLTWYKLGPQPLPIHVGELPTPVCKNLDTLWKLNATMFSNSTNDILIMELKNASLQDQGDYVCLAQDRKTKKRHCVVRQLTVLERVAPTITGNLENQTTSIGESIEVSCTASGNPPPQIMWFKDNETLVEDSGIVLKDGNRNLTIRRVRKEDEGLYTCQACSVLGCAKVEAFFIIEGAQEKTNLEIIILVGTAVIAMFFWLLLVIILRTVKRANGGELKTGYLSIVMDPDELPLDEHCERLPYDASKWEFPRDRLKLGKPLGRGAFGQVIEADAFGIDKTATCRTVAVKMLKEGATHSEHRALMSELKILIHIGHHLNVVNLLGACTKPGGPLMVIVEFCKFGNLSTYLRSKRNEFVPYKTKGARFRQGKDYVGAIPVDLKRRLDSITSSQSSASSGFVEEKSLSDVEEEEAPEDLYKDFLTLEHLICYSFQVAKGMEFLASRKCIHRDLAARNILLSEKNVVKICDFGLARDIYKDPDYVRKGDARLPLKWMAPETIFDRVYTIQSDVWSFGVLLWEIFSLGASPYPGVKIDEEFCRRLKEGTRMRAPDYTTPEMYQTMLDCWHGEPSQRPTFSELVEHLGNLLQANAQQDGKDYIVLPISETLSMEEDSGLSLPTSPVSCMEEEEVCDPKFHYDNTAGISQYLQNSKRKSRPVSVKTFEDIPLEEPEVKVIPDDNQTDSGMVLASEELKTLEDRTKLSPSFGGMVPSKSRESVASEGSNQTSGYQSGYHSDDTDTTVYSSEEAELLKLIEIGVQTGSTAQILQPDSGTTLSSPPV
T4 sequence (P21802 22-821): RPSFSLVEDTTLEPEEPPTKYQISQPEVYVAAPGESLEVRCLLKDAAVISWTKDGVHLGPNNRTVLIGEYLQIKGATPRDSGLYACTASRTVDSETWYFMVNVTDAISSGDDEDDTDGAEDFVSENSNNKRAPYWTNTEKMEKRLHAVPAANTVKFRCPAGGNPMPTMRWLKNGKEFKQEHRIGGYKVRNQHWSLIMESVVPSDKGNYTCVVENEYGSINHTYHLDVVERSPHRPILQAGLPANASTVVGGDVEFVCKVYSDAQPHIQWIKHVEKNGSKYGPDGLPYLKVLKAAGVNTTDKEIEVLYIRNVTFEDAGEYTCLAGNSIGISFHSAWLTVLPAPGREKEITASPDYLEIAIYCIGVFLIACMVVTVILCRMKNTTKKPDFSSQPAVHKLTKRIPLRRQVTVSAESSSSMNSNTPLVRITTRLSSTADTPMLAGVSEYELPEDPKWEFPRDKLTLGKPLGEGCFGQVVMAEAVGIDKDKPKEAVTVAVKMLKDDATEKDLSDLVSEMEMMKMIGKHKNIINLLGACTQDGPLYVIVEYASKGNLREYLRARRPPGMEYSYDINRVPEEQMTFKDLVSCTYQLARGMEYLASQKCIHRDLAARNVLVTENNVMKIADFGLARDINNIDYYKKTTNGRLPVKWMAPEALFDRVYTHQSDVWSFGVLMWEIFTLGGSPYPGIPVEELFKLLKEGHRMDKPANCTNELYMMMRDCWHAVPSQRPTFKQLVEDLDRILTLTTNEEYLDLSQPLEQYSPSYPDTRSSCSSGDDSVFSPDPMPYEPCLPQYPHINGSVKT
T1 sequence (P15056 whole entry): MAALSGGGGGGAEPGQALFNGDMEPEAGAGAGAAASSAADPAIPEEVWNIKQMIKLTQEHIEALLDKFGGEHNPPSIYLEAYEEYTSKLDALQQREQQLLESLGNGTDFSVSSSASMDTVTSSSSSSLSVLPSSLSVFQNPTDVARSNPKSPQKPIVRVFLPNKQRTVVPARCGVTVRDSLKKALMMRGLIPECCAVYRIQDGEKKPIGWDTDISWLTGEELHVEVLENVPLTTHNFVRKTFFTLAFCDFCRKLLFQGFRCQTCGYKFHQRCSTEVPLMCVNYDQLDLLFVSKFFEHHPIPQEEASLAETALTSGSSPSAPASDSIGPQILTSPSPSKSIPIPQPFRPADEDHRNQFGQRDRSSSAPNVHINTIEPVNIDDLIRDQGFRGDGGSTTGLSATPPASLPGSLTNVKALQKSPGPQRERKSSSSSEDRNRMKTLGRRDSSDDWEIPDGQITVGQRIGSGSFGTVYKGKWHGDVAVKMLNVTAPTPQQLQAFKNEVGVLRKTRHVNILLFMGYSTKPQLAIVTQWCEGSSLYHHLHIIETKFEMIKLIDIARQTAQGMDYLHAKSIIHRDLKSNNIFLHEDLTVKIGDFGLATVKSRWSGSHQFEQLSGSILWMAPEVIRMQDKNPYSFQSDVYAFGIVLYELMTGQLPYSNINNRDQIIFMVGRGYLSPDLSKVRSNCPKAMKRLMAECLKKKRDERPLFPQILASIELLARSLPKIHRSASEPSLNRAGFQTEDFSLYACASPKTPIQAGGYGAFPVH

A word on the inhibition: it is how much of the control response was suppressed. Take `CC(=O)c1cc2cc(C(=O)Nc3cc(NC(=O)c4cc(-n5cnc(C)c5)cc(C(F)(F)F)c4)ccc3C)cnc2[nH]1` [OR0723, 2-Acetyl-1H-pyrrolo[2,3-b]pyridine-5-carboxylic acid {2-methyl-5-[3-(4-methyl-imidazol-1-yl)-5-trifluoromethyl-benzoylamino]-phenyl}-amide]: the inhibition at 0.1 µM at BRAF is less than 50%; on EGFR (ErbB1) T790M L858R it was less than 50%; at EGFR (ErbB1), not below 50%; on FGFR2, less than 50%; at KDR (VEGFR2) it was less than 50%; at PDGFRA (PDGFR alpha), less than 50%. Moreover, on SRC, the inhibition at 0.1 µM was less than 50%.
As to `COC(=O)c1cc2cc(CNC(=O)c3cc(NC(=O)c4ccc(CN5CCN(C)CC5)c(C(F)(F)F)c4)ccc3C)cnc2[nH]1` [OR0728, 5-({2-Methyl-5-[4-(4-methyl-piperazin-1-ylmethyl)-3-trifluoromethyl-benzoylamino]-benzoylamino}-methyl)-1H-pyrrolo[2,3-b]pyridine-2-carboxylic acid methyl ester], the inhibition at 0.1 µM at BRAF was less than 50%; on EGFR (ErbB1) T790M L858R, less than 50%; at EGFR (ErbB1), less than 50%; on FGFR2, less than 50%; on KDR (VEGFR2), less than 50%; at PDGFRA (PDGFR alpha), not below 50%. The inhibition at 0.1 µM on SRC was less than 50%.
As to `COC(=O)c1cc2cc(CNC(=O)c3cc(NC(=O)c4ccc(CN5CCN(C)CC5)cc4)ccc3C)cnc2[nH]1` [OR0730, 5-({2-Methyl-5-[4-(4-methyl-piperazin-1-ylmethyl)-benzoylamino]-benzoylamino}-methyl)-1H-pyrrolo[2,3-b]pyridine-2-carboxylic acid methyl ester], the inhibition at 0.1 µM at BRAF, at EGFR (ErbB1) T790M L858R, at EGFR (ErbB1), on FGFR2, on KDR (VEGFR2) and at PDGFRA (PDGFR alpha) was less than 50% throughout. For the same compound, the inhibition at 0.1 µM at SRC was less than 50%.
A word on the EC50: it is the concentration that produces a half-maximal response. For the compound `COC(=O)c1cc2cc(CCc3cc(NC(=O)c4ccc(CN5CCN(C)CC5)cc4)ccc3C)cnc2[nH]1` [OR0834, 5-(2-{2-Methyl-5-[4-(4-methyl-piperazin-1-ylmethyl)-benzoylamino]-phenyl}-ethyl)-1H-pyrrolo[2,3-b]pyridine-2-carboxylic acid methyl ester], the inhibition at 0.1 µM on BRAF was less than 50%; at EGFR (ErbB1), not below 50%; at FGFR2 it was less than 50%; on KDR (VEGFR2) it was not below 50%; on PDGFRA (PDGFR alpha) it was not below 50%; on SRC, not below 50%. The EC50 in the assay with HepG2 cell line (EC50 ≧ 1 μM), in the assay with HuH7 cell line and with HUVEC cells (EC50 ≧ 1 μM) was not below 1 µM each time.
In the case of `COC(=O)c1cc2cc(CNC(=O)c3cc(NC(=O)c4ccc(CN5CCC(N(C)C)C5)c(C(F)(F)F)c4)ccc3C)cnc2[nH]1` (stereo not drawn) [OR0726, 5-({5-[4-(3-Dimethylamino-pyrrolidin-1-ylmethyl)-3-trifluoromethyl-benzoylamino]-2-methyl-benzoylamino}-methyl)-1H-pyrrolo[2,3-b]pyridine-2-carboxylic acid methyl ester], the inhibition at 0.1 µM on BRAF, on EGFR (ErbB1) T790M L858R, on EGFR (ErbB1), at FGFR2, on KDR (VEGFR2) and at PDGFRA (PDGFR alpha) was less than 50% in each case. For the same compound, the inhibition at 0.1 µM on SRC was less than 50%.
As to `Cc1nc(Nc2ncc(C(=O)Nc3c(C)cccc3Cl)s2)cc(N2CCN(CCO)CC2)n1` [Dasatinib, reference compound], the EC50 in the assay with HepG2 cell line (EC50 ≧ 1 μM), in the assay on HuCCT1 cell line and in the assay on HUVEC cells (EC50 ≧ 1 μM) was not below 1 µM in each case.
Regarding `CC(=O)c1cc2cc(C(=O)Nc3cc(NC(=O)c4ccc(CN5CCN(C)CC5)c(C(F)(F)F)c4)ccc3C)cnc2[nH]1` [OR0724, 2-Acetyl-1H-pyrrolo[2,3-b]pyridine-5-carboxylic acid {2-methyl-5-[4-(4-methyl-piperazin-1-ylmethyl)-3-trifluoromethyl-benzoylamino]-phenyl}-amide], the inhibition at 0.1 µM on BRAF is less than 50%; on EGFR (ErbB1) T790M L858R, not below 50%; on EGFR (ErbB1), not below 50%; on FGFR2 it was less than 50%; at KDR (VEGFR2) it was less than 50%; at PDGFRA (PDGFR alpha) it was less than 50%. On SRC, the inhibition at 0.1 µM was less than 50%.
Turning to `CC(=O)c1cc2cc(CCc3cc(NC(=O)c4cncc(C(F)(F)F)c4)ccc3C)cnc2[nH]1` [OR0800, N-{3-[2-(2-Acetyl-1H-pyrrolo[2,3-b]pyridin-5-yl)-ethyl]-4-methyl-phenyl}-5-trifluoromethyl-nicotinamide], the inhibition at 0.1 µM at BRAF was not below 50%; on EGFR (ErbB1), less than 50%; at FGFR2, less than 50%; on KDR (VEGFR2), not below 50%; at PDGFRA (PDGFR alpha) it was not below 50%; on SRC, not below 50%. Also, the EC50 was not below 1 µM in the assay with HepG2 cell line (EC50 ≧ 1 μM); not below 1 µM in the assay on HuH7 cell line; not below 1 µM in the assay with HuH6 Clone 5 cell line; not below 1 µM in the assay with HuCCT1 cell line; 0.1 to 1 µM in the assay on HUVEC cells (100 nM < EC50 < 1 μM).
Regarding `CC(=O)c1cc2cc(CCc3cc(NC(=O)Nc4cccc(C(F)(F)F)c4)ccc3C)cnc2[nH]1` [OR0919, 1-{3-[2-(2-Acetyl-1H-pyrrolo[2,3-b]pyridin-5-yl)-ethyl]-4-methyl-phenyl}-3-(3-trifluoromethyl-phenyl)-urea], the inhibition at 0.1 µM was less than 50% at BRAF; less than 50% on EGFR (ErbB1); less than 50% on FGFR2; less than 50% on KDR (VEGFR2); not below 50% on PDGFRA (PDGFR alpha); less than 50% on SRC. Moreover, the EC50 in the assay on HepG2 cell line (EC50 ≦ 100 nM) was not above 0.1 µM; with A549 cell line it was not below 1 µM; in the assay with MDA-MB-231 cell line (100 nM < EC50 < 1 μM), 0.1 to 1 µM; in the assay on HeLa cell line it was not below 1 µM; in the assay on HUVEC cells (EC50 ≧ 1 μM) it was not below 1 µM.
For `CNC(=O)c1cc(Oc2ccc(NC(=O)Nc3ccc(Cl)c(C(F)(F)F)c3)cc2)ccn1` [Sorafenib, reference compound], the EC50 in the assay on HepG2 cell line (EC50 ≧ 1 μM) lay within 1 to 3 µM; in the assay on HuH7 cell line, 1 to 3 µM; in the assay with HuH6 Clone 5 cell line it was 1 to 3 µM; in the assay on HuCCT1 cell line it was 1 to 3 µM; in the assay on HUVEC cells (100 nM < EC50 < 1 μM) it was 0.1 to 1 µM.
Regarding `CC(=O)c1cc2cc(CCc3cc(NC(=O)Cc4cccc(C(F)(F)F)c4)ccc3C)cnc2[nH]1` [OR0966, N-{3-[2-(2-Acetyl-1H-pyrrolo[2,3-b]pyridin-5-yl)-ethyl]-4-methyl-phenyl}-2-(3-trifluoromethyl-phenyl)-acetamide], the inhibition at 0.1 µM is not below 50% at BRAF; less than 50% on EGFR (ErbB1); less than 50% on FGFR2; less than 50% on KDR (VEGFR2); less than 50% at PDGFRA (PDGFR alpha); less than 50% at SRC. Also, the EC50 was 0.1 to 1 µM in the assay with HepG2 cell line (100 nM < EC50 < 1 μM); not below 1 µM in the assay on A549 cell line; not below 1 µM in the assay on MDA-MB-231 cell line (EC50 ≧ 1 μM); not below 1 µM in the assay with HeLa cell line; not below 1 µM in the assay on HUVEC cells (EC50 ≧ 1 μM).
With `COC(=O)c1cc2cc(C=Nc3cc(NC(=O)c4ccc(CN5CCN(C)CC5)c(C(F)(F)F)c4)ccc3C)cnc2[nH]1` [OR1070, 5-({2-Methyl-5-[4-(4-methyl-piperazin-1-ylmethyl)-3-trifluoromethyl-benzoylamino]-phenylimino}-methyl)-1H-pyrrolo[2,3-b]pyridine-2-carboxylic acid methyl ester], the inhibition at 0.1 µM on BRAF is less than 50%; at EGFR (ErbB1), not below 50%; on FGFR2 it was not below 50%; at KDR (VEGFR2), not below 50%; at PDGFRA (PDGFR alpha), not below 50%; on SRC, not below 50%. Besides, the 50% effective concentration (EC50) in the assay on HepG2 cell line (EC50 ≧ 1 μM), in the assay on A549 cell line, in the assay on MDA-MB-231 cell line (EC50 ≧ 1 μM), in the assay with HeLa cell line and in the assay with HUVEC cells (EC50 ≧ 1 μM) was not below 1 µM throughout.

The values above are taken from US9550772B2, “Azaindole derivatives as multi kinase inhibitors” (ORIBASE PHARMA, priority 2012, dated 2017).
